In US12318452B2, “Degraders of WEE1 kinase” (DANA-FARBER CANCER INSTITUTE, INC., priority 2018, dated 2025):

Assays:
Wee1 = Wee1 (Homo sapiens, UniProt P30291); assay: LanthaScreen FRET-based biochemical binding assay for Wee1; conditions: LanthaScreen Binding activity assay; average of two replicates ± SD
Protocol: (§1) LanthaScreen™ assays were conducted for Wee1 in a 10-point dose response as performed in the commercial assay service by Life Technologies™. Z′-LYTE™ assays were conducted for PLK1 as performed in the commercial assay service by Life Technologies™ in a 10-point dose response using Km ATP concentrations.

pCDK1 Y15 = assay: Downstream signalling immunoblot in MOLT4 cells (pCDK1 Y15, cleaved PARP, γH2Ax); format: cell-based; conditions: 1 μM, 24 hours, MOLT4 cells
Protocol: Whole cell lysates for immunoblotting were prepared by pelleting cells from each cell line at 4° C. (300 g) for 5 minutes. The resulting cell pellets were washed 1× with ice-cold PBS and then resuspended in RIPA lysis buffer (Sigma, cat #R0278) supplemented with protease and phosphatase inhibitor tablets (Roche cat #4906845001). Lysates were clarified at 14,000 rpm for 15 minutes at 4° C. prior to quantification by BCA assay (Pierce™, cat #23225). Whole cell lysates were loaded into Bolt 4-12% Bis-Tris Gels (Thermo Fisher, cat #NW04120BOX) and separated by electrophoreses at 95 V for 1.5 hours. The gels were transferred to a nitrocellulose membrane using the iBlot® Gel Transfer at P3 for 7 minutes (Thermo Fisher, cat #IB23001) and then blocked for 1 hour at room temperature in Odyssey® blocking buffer (LICOR® Biosciences, cat #927-50010). Membranes were probed using antibodies against the relevant proteins at 4° C. overnight in 20% Odyssey® Blocking Buffer in 1×TBST. Membranes were then washed three times with 1×TBST (at least 5 minutes per wash) followed by incubation with the IRDye® goat anti-mouse (LICOR®, cat #926-32210) or goat anti-rabbit (LICOR®, cat #926-32211) secondary antibody (diluted 1:10,000) in 20% Odyssey® Blocking Buffer in 1×TBST for 1 hour at room temperature. After three washes with 1×TBST (at least 5 minutes per wash), the immunoblots were visualized using the ODYSSEY® Infrared Imaging System (LICOR®).
MOLT4 cells were plated at 1.5 million cells per well in a 6-well plate, with 3 mL of media per well. Cells were then immediately treated with the indicated concentration of the indicated compound and incubated for the indicated amount of time. Cells were collected by transferring each well to a 15 mL conical, centrifuging (1000 rpm for 3 min), then washing the cell pellet 2× with cold PBS. Each cell pellet was then lysed in 100 μL of RIPA lysis buffer (+protease/phosphatase inhibitors). Samples were normalized and prepped in 4×LDS+10% β-mercaptoethanol and boiled for 5 min at 95° C. Lysates were probed for specified proteins by western blotting using the Bolt® system (Life Technologies™)
The effects of targeted Wee1 degradation on the cell cycle were evaluated. Wee1 is required for the temporal regulation of CDK1 at the G2/M cell-cycle checkpoint, and Wee1 loss therefore […] via activation of CDK1. Following loss of Wee1 activity, cells are expected to enter mitosis before completing DNA repair, ultimately resulting in excessive unrepaired DNA damage, mitotic catastrophe, and apoptosis (Beck et al., Mol. Cell Biol. 32:4226-4236 (2012)).

[1] = test system: MOLT4 cells (parental, wild type); assay: CellTiter-Glo cell viability, 72 hours; format: cell-based; conditions: 72-hr
Protocol: The indicated cell lines were plated in flat bottom 384-well plates (Corning® cat #3570). MOLT4 cells were plated at a density of 3,000 cells per well in 50 μL media, while OVCAR8, COV362, and Kuramochi cells were plated at a density of 750 cells per well in 50 μL media. Cells were treated the next day (except for MOLT4 cells, which were treated the same day as plating) with 0.1 μL of the indicated compounds in a four-fold dilution series using the Janus pinner. Cells were incubated with compounds for 72 hours at 37° C. 5% CO2. Anti-proliferative effects were then assessed by CellTiter-Glo® Luminescent Cell Viability Assay (Promega™ cat #G7570) according to the manufacturer's standards, measuring luminescence using an EnVision® plate-reader. IC50 values were determined using a non-linear regression curve fit in GraphPad Prism 8. N=4 biological replicates were used for each treatment condition.
MOLT4 cells were plated in a 384-well plate at 5,000 cells per well in 50 μL media (RPMI+10% FBS+1% Penn/Strep) and treated with 0.1 μL of the candidate compounds in four-fold dilution series using the Janus pinner. Cells were incubated with compounds for 72 hours at 37° C. 5% CO2. Anti-proliferative effects of these compounds were assessed 72 hours after compound addition using CellTiter-Glo® (Promega, cat #G7571). All proliferation assays were performed in biological quadruplicate. […] Effects upon cell viability for compound 13 in the MOLT4 WT cells are therefore likely driven in part by Wee1 inhibition, and in part by CRBN-mediated Wee1 degradation. […] Degradation of Wee1 with compound 21 was mediated by VHL.

OVCAR8 cells = assay: Synergy experiment, CellTiter-Glo co-treatment for 72 hours; format: cell-based
PLK1 = PLK1 (Homo sapiens, UniProt P53350); assay: Z′-LYTE kinase activity assay for PLK1; format: biochemical; design: purchased Life Technologies (Invitrogen) commercial assay service; conditions: Km ATP, average of two replicates ± SD
Sequence of PLK1 (P53350 whole entry): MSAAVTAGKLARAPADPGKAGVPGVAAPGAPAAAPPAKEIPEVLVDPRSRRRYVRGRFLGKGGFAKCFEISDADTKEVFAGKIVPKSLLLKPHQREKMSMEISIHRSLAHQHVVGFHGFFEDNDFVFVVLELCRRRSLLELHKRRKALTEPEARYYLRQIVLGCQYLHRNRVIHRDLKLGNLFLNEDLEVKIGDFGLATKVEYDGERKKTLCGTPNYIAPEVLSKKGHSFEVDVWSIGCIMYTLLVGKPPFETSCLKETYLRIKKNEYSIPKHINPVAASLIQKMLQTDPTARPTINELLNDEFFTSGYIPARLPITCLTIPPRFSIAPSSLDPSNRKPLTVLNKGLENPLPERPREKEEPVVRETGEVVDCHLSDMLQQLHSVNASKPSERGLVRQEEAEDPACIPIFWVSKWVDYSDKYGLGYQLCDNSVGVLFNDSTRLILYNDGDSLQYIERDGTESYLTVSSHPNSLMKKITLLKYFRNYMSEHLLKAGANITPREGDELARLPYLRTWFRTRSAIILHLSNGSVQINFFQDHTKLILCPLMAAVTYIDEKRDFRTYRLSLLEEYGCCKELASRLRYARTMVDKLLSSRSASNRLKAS
Protocol: as §1
The selectivity of Wee1 degradation was then assessed by performing multiplexed mass spectrometry (MS)-based proteomics in MOLT4 cells treated with 100 nM of compound 13 for 2 hours (Donovan et al., Elife 7:e38430 (2018)).

Sequence of Wee1 (P30291 whole entry): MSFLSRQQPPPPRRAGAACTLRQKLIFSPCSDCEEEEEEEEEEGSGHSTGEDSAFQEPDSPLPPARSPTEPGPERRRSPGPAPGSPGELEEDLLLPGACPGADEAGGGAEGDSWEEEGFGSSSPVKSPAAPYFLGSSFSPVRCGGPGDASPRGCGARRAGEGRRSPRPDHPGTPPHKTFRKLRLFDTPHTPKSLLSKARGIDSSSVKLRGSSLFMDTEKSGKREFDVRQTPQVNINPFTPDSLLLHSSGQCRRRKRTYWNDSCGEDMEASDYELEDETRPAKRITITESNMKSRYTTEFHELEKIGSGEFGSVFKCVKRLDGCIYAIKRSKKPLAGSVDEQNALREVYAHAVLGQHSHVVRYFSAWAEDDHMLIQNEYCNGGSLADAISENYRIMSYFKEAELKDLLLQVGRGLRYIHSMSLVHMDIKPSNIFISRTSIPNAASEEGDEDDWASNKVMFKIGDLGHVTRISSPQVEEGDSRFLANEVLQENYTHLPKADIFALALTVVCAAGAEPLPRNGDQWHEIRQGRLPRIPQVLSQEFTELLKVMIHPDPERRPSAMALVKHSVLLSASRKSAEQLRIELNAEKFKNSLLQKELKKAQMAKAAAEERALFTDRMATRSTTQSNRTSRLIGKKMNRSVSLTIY

Compound: Nc1cccc2c1C(=O)N(C1CCC(=O)NC1=O)C2=O (stereo not drawn) [Pomalidomide, reference compound]
- IC50 (Wee1): > 10 µM
- Effect on phosphorylation of CDK1 Y15, apoptosis, DNA damage (pCDK1 Y15): did not affect phosphorylation of CDK1 Y15, apoptosis, or levels of DNA damage
- Antiproliferative activity [1]: no detectable antiproliferative activity
- Synergy with AZD1775 (OVCAR8 cells; 72-hr co-treatment with AZD1775): not synergistic
- Synergy with Olaparib (OVCAR8 cells; 72-hr co-treatment with Olaparib): not synergistic
- IC50 (PLK1): > 10 µM
